B1: IL4: human recombinant IL4, Th2 cytokine commonly found in atopic dermatitis (protein, UniProt P05112 25-153, looked up)
Interleukin-4: HKCDITLQEIIKTLNSLTEQKTLCTELTVTDIFAASKNTTEKETFCRAATVLRQFYSHHEKDTRCLGATAQQFHRHKQLIRFLKRLDRNLWGLAGLNSCPVKEANQSTLENFLERLKTIMREKYSKCSS

Experiments:
[1] = test system: barrier-disrupted human epidermis; experiment: TEER of tape stripped (barrier-disrupted) human epidermis in the system; type: cell-based; settings: compared with media alone
Experimental: (§1) The Weck blade is held at a 30-45° angle from the donor skin (e.g. living subject or discarded skins from plastic surgery procedures) surface, while a gentle traction behind the blade is provided by the other hand. Using different depths (e.g. […]), based on the skin sample source (e.g. based on differences in epidermal depth in different anatomical areas as well as species-specific differences), we can effectively isolate intact, full thickness epidermal samples with minimal to no dermis (e.g. subepithelial tissue). The epidermis is removed using that Weck surgical blade, cut into smaller samples to fit the apparatus and placed in a calcium-containing buffer until it is mounted in the device.
(§2) We have also used the invention to test the effect of cytokines relevant to human disease on epidermal barrier function recovery. Human discarded skin was tape stripped to induce a barrier impairment, this barrier-disrupted epidermis was isolated using the Weck blade and placed into the system. Samples were than treated for 24 h with human recombinant IL17A, a prototypic cytokine commonly found within the skin lesions of psoriasis (FIG. 6) or the Th2 cytokines, IL4 and IL13, commonly found in atopic dermatitis (FIG. 7). After 24 h treatment with human recombinant IL17A (50 and 100 ng/ml), TEER was increased, and paracellular flux was reduced as compared with a sample treated with media alone. Those data indicated IL17A enhanced epidermal barrier recovery.

[2] = test system: barrier-disrupted human epidermis; experiment: Paracellular flux across tape stripped (barrier-disrupted) human epidermis in the system; type: cell-based; settings: compared with media alone
Experimental: as §1, §2

[3] = test system: intact human epidermis samples; settings: Histamine 100 μM; evaluated at 10, 20 and 30 minutes; epidermis isolated with dispase; FIG. 5
Source text: The invention will allow measuring epidermal barrier integrity by evaluating transepithelial electric resistance (TEER), using a planar electrode (for example, Endohm-Snap; World Precision Instruments, Sarasota, Fla., USA), and a paracellular flux assay of for example, fluorescently labeled probes of different radii and sizes. Probes can be added to the upper well, and samples will be collected in the lower well over time to determine the paracellular flux. The amount of fluorescent probes that diffuse across the epidermis sample can be measured using an appropriate fluorometer or spectrophotometer.
The filter 206 of the original detachable ring 204 in the Snapwell™ (Corning, 3407) is replaced by a sandwich system 302 having two Plexiglas (or any other suitable material) inserts 304, with the epidermis/skin sample 306 lying in between them on a filter paper 308 (Nucleopore Track-etched, #110407; 13 mm diameter & pore: 0.4 μm) so that it covers the opening. The skin sample 306 is inserted with epidermis side up. Each of the inserts 304 has a hole 310 formed therein with a diameter of 0.3 cm and an area of 0.0707 cm^2. As in the conventional Snapwell™ system, the sandwich system is 302 is placed between an upper well 312 having a medium 314 and a lower well 316 having a medium 318. A volt-ohm meter 320 is connected between the two media. […]

[4] = test system: murine skin samples (wild type and STAT6 mice); experiment: Skin barrier recovery after in vivo tape stripping, murine skin samples mounted in the system; type: cell-based; settings: Pam3CSK4 10 μM; wild type versus STAT6 mice, n=3 each; normalized to WT vehicle control; FIG. 8
Experimental: For very thin skin samples isolated from rodents or other small mammalians, curettage along the dermal surface of the biopsy can be performed with a blade to minimize the amount of dermis taken. Alternatively, skin can be incubated in ammonium thiocyanate and epidermis removed from dermis. Murine skin can be isolated from any anatomical area, defatted using a surgical blade, cut into smaller samples to mount in the apparatus.
We have also used the present invention in a murine model. Skin barrier recovery after in vivo tape stripping was evaluated in wild type mice as compared to genetically modified mice that expressed a constitutively activated form of STAT6 under the CD2 locus, that results in the enhanced expression of Th2 cytokines (IL-4 and IL-13). Skin samples were collected from the healthy, nonperturbed skin of the back or from an area of the back that underwent tape stripping. The dermis was removed by scraping with a surgical blade and skin samples were mounted in the system. We observed no differences in recovery between the two mice strains. […] All data are normalized to WT vehicle control group. In FIG. 8, ns: not significant; *P<0.05, **P<0.01, ***P<0.001. (WT, n=3; STAT6VT, n=3).

[5] = IL17A 50 and 100 ng/ml, 24 h treatment, FIG. 6
[6] = IL4 (50 ng/ml) and IL13 (50 ng/ml) given together, FIG. 7

Molecule	TEER [1, 6]	paracellular flux [2, 6]	further results
IL17A: human recombinant IL17A, a prototypic cytokine commonly found within the skin lesions of psoriasis			TEER [1, 5]: increased; paracellular flux [2, 5]: reduced
NCCc1c[nH]cn1 [Histamine]			paracellular flux of fluorescein [3]: enhanced
IL13: human recombinant IL13, Th2 cytokine commonly found in atopic dermatitis	reduced	increased	
Pam3CSK4			skin barrier recovery [4]: greater recovery in wild type mice
B1	reduced	increased	

From patent publication US8993257B2, “System and method for studying epidermis samples ex vivo” (University of Rochester, priority 2012, dated 2015)
